According to patent publication US20190248888A1, “METHODS OF LOWERING BLOOD GLUCOSE LEVELS” (Regeneron Pharmaceuticals, Inc., priority 2016, published 2019):

What was measured:
αTC1-6 glucagonoma cells = assay: αTC1-6 cell proliferation (CellTiter 96 Aqueous), WT and Slc38a5 KD; type: cell-based; settings: 4 mM in culture medium, 5 days; for cell proliferation, Slc38a5 knock-down αTC1-6 cells: compared with wildtype cells
Text: Slc38a5 KO αTC1 clones were generated using CRISPR-Cas9 techniques. Target sequences (sgRNAs) were designed using an online sgRNA design tool from DNA2.0 (DNA2.0). The sgRNAs were cloned into the pSpCas9-2A-GFP-Puro vector using BsmBl (NEB) and αTC1 cells were transfected with Lipofectamine 2000 according to the manufacturers' instructions (Life Technologies). Clones with deletion mutations were verified by PCR amplifications, TaqMan analysis and RNA sequencing. […] Both WT and Slc38a5 KD αTC1/6 cells were prepared in an assay medium (MEM from Gibco), supplemented with 5% fetal bovine serum (FBS), 10 mM HEPES, and 100 IU/ml penicillin and 100 μg/ml streptomycin) and seeded on 96-well plates at a density of ˜15,000 cells per well in 4-6 replicates. Selected amino acids were added to the final concentration of 4 mM. Cell proliferations were measured every day using the CellTiter 96 Aqueous Cell Proliferation Assay (Promega) according to the manufacturer's instructions. Briefly, 20 μl of assay reagent was added to each well and the cell plates were incubated in a tissue culture incubator for 2.5 hours. Absorbance was measured at 490 nm on a plate reader SpectraMax Plus (Molecular Devices). Values were corrected for background absorbance using the averages of the wells containing assay medium only and plotted in Prism (GraphPad).

C57BL/6 mice = assay: GCGR antibody with or without rapamycin in C57BL/6 mice: blood chemistry, islet cell mass; settings: GCGR-antibody and rapamycin-treated mice
Procedure: C57BL/6 mice (males, 10 weeks of age, Taconic) were housed (5 mice per cage) in a controlled environment (12-h light/dark cycle, 22±1° C., 60-70% humidity) and fed ad libitum with standard chow (Purina Laboratory Rodent Diet 5001, LabDiet). Mice were assigned to study groups (n=10) based on baseline blood glucose levels. Mice were injected subcutaneously (sc) with GCGR antibody (3 mg/kg) or the control antibody (3 mg/kg) alone or in combination with rapamycin (10 mg/kg) or the vehicle. For the duration of the study, GCGR or control antibody was administered once weekly, whereas rapamycin or the vehicle was administered daily. Blood was collected from the tail for glucose measurements without fasting. Plasma samples were collected via submandibular bleeds at baseline and on day 21 after dosing for analysis of hormones and total amino acid levels. Seven days after the last antibody administration (day 21), mice were sacrificed, organs weighed and pancreata collected.
Pancreas α- and β-cell mass was measured as described elsewhere (Okamato et al., 2015, Endocrinology 156:2781-2794). α- and PP cell mass were determined using anti-somatostatin antibody (Sigma-Aldrich; #SAB4502861) and anti-pancreatic polypeptide antibody (Sigma-Aldrich; #SAB2500747). For quantifying Slc38a5 positive α-cells, pancreas sections were stained with human anti-glucagon and rabbit anti-Slc38a5 (Abcam; #ab72717) primary antibodies, and Alexa Fluor 488 labeled donkey anti-rabbit (Jackson ImmunoResearch; #711-545-152) and Alexa Fluor 594 donkey anti-human (Jackson ImmunoResearch; #709-585-149) secondary antibodies. For quantifying proliferating cells, Alexa Fluor 647 labeled anti-Ki67 (Abcam; #ab194724) was used in combination with anti-glucagon and anti-Slc38a5 antibodies. Slides were scanned using a Zeiss Axio Scan.Z1 slide scanner (Zeiss) and the images were analyzed using the Halo (Indica Labs).
Blood glucose was determined using ACCU-CHEK® Compact Plus (Roche Diagnostics). Plasma glucagon and insulin levels were determined using glucagon and mouse insulin ELISA (Mercodia). Plasma total amino acid levels were measured using L-Amino Acid Quantification Kit (Sigma-Aldrich).

Row | SMILES | rate of cell proliferation, wildtype αTC1-6 cells (αTC1-6 glucagonoma cells) | cell proliferation, Slc38a5 knock-down αTC1-6 cells (αTC1-6 glucagonoma cells) | muscle mass (C57BL/6 mice)
1 | C[C@H](N)C(=O)O [alanine] | significantly increased | to a much lesser extent | 
2 | CO[C@H]1C[C@@H]2CC[C@@H](C)[C@@](O)(O2)C(=O)C(=O)N2CCCC[C@H]2C(=O)O[C@H]([C@H](C)C[C@@H]2CC[C@@H](O)[C@H](OC)C2)CC(=O)[C@H](C)/C=C(\C)[C@@H](O)[C@@H](OC)C(=O)[C@H](C)C[C@H](C)/C=C/C=C/C=C/1C [rapamycin, reference compound] |  |  | small reduction
3 | NC(=O)CC[C@H](N)C(=O)O [glutamine] | significantly increased | to a much lesser extent | 
